Legend:
[1] = Compound cytotoxicity, XTT-based colorimetric assay; assay type: cell-based; details: human; uninfected MT2 cells, day 4, XTT
Procedure: Compound cytotoxicity and the corresponding CC50 values were determined using the same protocol as described in the antiviral assay except that uninfected cells were used. Cytotoxicity was assessed on day 4 in uninfected MT2 cells by using a XTT (2,3-bis[2-Methoxy-4-nitro-5-sulfophenyl]-2H-tetrazolium-5-carboxyanilide inner salt)-based colorimetric assay (Sigma-Aldrich, St Louis, Mo.).

[2] = test system: recombinant NL4-3 virus (Renilla luciferase) in MT-2 cells; experiment: HIV cell culture assay (antiviral activity, luciferase readout in MT-2 cells); assay type: cell-based; details: NL43
Procedure: HIV cell culture assay—MT-2 cells, 293T cells and the proviral DNA clone of NL4-3 virus were obtained from the NIH AIDS Research and Reference Reagent Program. MT-2 cells were propagated in RPMI 1640 media supplemented with 10% heat inactivated fetal bovine serum (FBS), […]. The 293T cells were propagated in DMEM media supplemented with 10% heat inactivated FBS, […]. A recombinant NL4-3 proviral clone, in which a section of the nef gene was replaced with the Renilla luciferase gene, was used to make the reference virus used in these studies. The recombinant virus was prepared through transfection of the recombinant NL4-3 proviral clone into 293T cells using Transit-293 Transfection Reagent from Mirus Bio LLC (Madison, Wis.). Supernatant was harvested after 2-3 days and the amount of virus present was titered in MT-2 cells using luciferase enzyme activity as a marker by measuring luciferase enzyme activity. Luciferase was quantitated using the EnduRen Live Cell Substrate from Promega (Madison, Wis.). Antiviral activities of compounds toward the recombinant virus were quantified by measuring luciferase activity in MT-2 cells infected for 4-5 days with the recombinant virus in the presence of serial dilutions of the compound.
The 50% effective concentration (EC50) was calculated by using the exponential form of the median effect equation where (Fa)=1/[1+(ED50/drug conc.)m] (Johnson V A, Byington R T. Infectivity Assay. In Techniques in HIV Research. ed. Aldovini A, Walker B D. 71-76. New York: Stockton Press. 1990). The 50% inhibitory concentration (EC50) was calculated by using the exponential form of the median effect equation where percent inhibition=1/[1+(EC50/drug concentration)m], where m is a parameter that reflects the slope of the concentration-response curve.

| SMILES | CC50 at 4 days [1] [nM] | EC50 [2] [nM] |
| --- | --- | --- |
| Cn1nc(NS(C)(=O)=O)c2c(Cl)ccc(-n3c([C@H](Cc4cc(F)cc(F)c4)NC(=O)Cn4nc(C(F)F)c5c4C(F)(F)[C@@H]4C[C@H]54)nc4cc(OCC5CCC5)ccc4c3=O)c21 (atropisomer, axis not shown; (P)) [Example 12, N—((S)-1-((3P)-3-(4-chloro-1-methyl-3-(methylsulfonamido)-1H-indazol-7-yl)-7-(cyclobutylmethoxy)-4-oxo-3,4-dihydroquinazolin-2-yl)-2-(3,5-difluorophenyl)ethyl)-2-((3bS,4aR)-3-(difluoromethyl)-5,5-difluoro-3b,4,4a,5-tetrahydro-1H-cyclopropa[3,4]cyclopenta[1,2-c]pyrazol-1-yl)acetamide] | > 1000 | 0.15 |
| Cn1nc(NS(C)(=O)=O)c2c(Cl)ccc(-n3c([C@H](Cc4cc(F)cc(F)c4)NC(=O)Cn4nc(C(F)F)c5c4C(F)(F)[C@@H]4C[C@H]54)nc4cc(OCCOc5ccccc5)ccc4c3=O)c21 (atropisomer, axis not shown; (P)) [Example 5, N—((S)-1-((3P)-3-(4-chloro-1-methyl-3-(methylsulfonamido)-1H-indazol-7-yl)-4-oxo-7-(2-phenoxyethoxy)-3,4-dihydroquinazolin-2-yl)-2-(3,5-difluorophenyl)ethyl)-2-((3bS,4aR)-3-(difluoromethyl)-5,5-difluoro-3b,4,4a,5-tetrahydro-1H-cyclopropa[3,4]cyclopenta[1,2-c]pyrazol-1-yl)acetamide] | > 1000 | 0.36 |
| Cn1nc(NS(C)(=O)=O)c2c(Cl)ccc(-n3c([C@H](Cc4cc(F)cc(F)c4)NC(=O)Cn4nc(C(F)F)c5c4C(F)(F)[C@@H]4C[C@H]54)nc4cc(OCC5CCCC5)ccc4c3=O)c21 (atropisomer, axis not shown; (P)) [Example 2, N—((S)-1-((3P)-3-(4-chloro-1-methyl-3-(methylsulfonamido)-1H-indazol-7-yl)-7-(cyclopentylmethoxy)-4-oxo-3,4-dihydroquinazolin-2-yl)-2-(3,5-difluorophenyl)ethyl)-2-((3bS,4aR)-3-(difluoromethyl)-5,5-difluoro-3b,4,4a,5-tetrahydro-1H-cyclopropa[3,4]cyclopenta[1,2-c]pyrazol-1-yl)acetamide] | > 1000 | 0.18 |
| Cn1nc(NS(C)(=O)=O)c2c(Cl)ccc(-n3c([C@H](Cc4cc(F)cc(F)c4)NC(=O)Cn4nc(C(F)F)c5c4C(F)(F)[C@@H]4C[C@H]54)nc4cc(OCCn5cccn5)ccc4c3=O)c21 (atropisomer, axis not shown; (P)) [Example 13, N—((S)-1-(7-(2-(1H-pyrazol-1-yl)ethoxy)-(3P)-3-(4-chloro-1-methyl-3-(methylsulfonamido)-1H-indazol-7-yl)-4-oxo-3,4-dihydroquinazolin-2-yl)-2-(3,5-difluorophenyl)ethyl)-2-((3bS,4aR)-3-(difluoromethyl)-5,5-difluoro-3b,4,4a,5-tetrahydro-1H-cyclopropa[3,4]cyclopenta[1,2-c]pyrazol-1-yl)acetamide] | > 1000 | 0.032 |
| Cn1nc(NS(C)(=O)=O)c2c(Cl)ccc(-n3c([C@H](Cc4cc(F)cc(F)c4)NC(=O)Cn4nc(C(F)F)c5c4C(F)(F)[C@@H]4C[C@H]54)nc4cc(OC5CCOCC5)ccc4c3=O)c21 (atropisomer, axis not shown; (P)) [Example 10, N—((S)-1-((3P)-3-(4-chloro-1-methyl-3-(methylsulfonamido)-1H-indazol-7-yl)-4-oxo-7-((tetrahydro-2H-pyran-4-yl)oxy)-3,4-dihydroquinazolin-2-yl)-2-(3,5-difluorophenyl)ethyl)-2-((3bS,4aR)-3-(difluoromethyl)-5,5-difluoro-3b,4,4a,5-tetrahydro-1H-cyclopropa[3,4]cyclopenta[1,2-c]pyrazol-1-yl)acetamide] | > 1000 | 0.036 |
| Cn1nc(NS(C)(=O)=O)c2c(Cl)ccc(-n3c([C@H](Cc4cc(F)cc(F)c4)NC(=O)Cn4nc(C(F)F)c5c4C(F)(F)[C@@H]4C[C@H]54)nc4cc(OC5CCCC5)ccc4c3=O)c21 (atropisomer, axis not shown; (P)) [Example 9, N—((S)-1-((3P)-3-(4-chloro-1-methyl-3-(methylsulfonamido)-1H-indazol-7-yl)-7-(cyclopentyloxy)-4-oxo-3,4-dihydroquinazolin-2-yl)-2-(3,5-difluorophenyl)ethyl)-2-((3bS,4aR)-3-(difluoromethyl)-5,5-difluoro-3b,4,4a,5-tetrahydro-1H-cyclopropa[3,4]cyclopenta[1,2-c]pyrazol-1-yl)acetamide] | > 1000 | 0.22 |
| Cn1nc(NS(C)(=O)=O)c2c(Cl)ccc(-n3c([C@H](Cc4cc(F)cc(F)c4)NC(=O)Cn4nc(C(F)F)c5c4C(F)(F)[C@@H]4C[C@H]54)nc4cc(OCCC(C)(C)C)ccc4c3=O)c21 (atropisomer, axis not shown; (P)) [Example 6, N—((S)-1-((3P)-3-(4-chloro-1-methyl-3-(methylsulfonamido)-1H-indazol-7-yl)-7-(3,3-dimethylbutoxy)-4-oxo-3,4-dihydroquinazolin-2-yl)-2-(3,5-difluorophenyl)ethyl)-2-((3bS,4aR)-3-(difluoromethyl)-5,5-difluoro-3b,4,4a,5-tetrahydro-1H-cyclopropa[3,4]cyclopenta[1,2-c]pyrazol-1-yl)acetamide] | > 1000 | 0.18 |
| Cn1nccc1CCOc1ccc2c(=O)n(-c3ccc(Cl)c4c(NS(C)(=O)=O)nn(C)c34)c([C@H](Cc3cc(F)cc(F)c3)NC(=O)Cn3nc(C(F)F)c4c3C(F)(F)[C@@H]3C[C@H]43)nc2c1 (atropisomer, axis not shown; (P)) [Example 7, N—((S)-1-((3P)-3-(4-chloro-1-methyl-3-(methylsulfonamido)-1H-indazol-7-yl)-7-(2-(1-methyl-1H-pyrazol-5-yl)ethoxy)-4-oxo-3,4-dihydroquinazolin-2-yl)-2-(3,5-difluorophenyl)ethyl)-2-((3bS,4aR)-3-(difluoromethyl)-5,5-difluoro-3b,4,4a,5-tetrahydro-1H-cyclopropa[3,4]cyclopenta[1,2-c]pyrazol-1-yl)acetamide] | > 1000 | 0.074 |
| Cn1nc(NS(C)(=O)=O)c2c(Cl)ccc(-n3c([C@H](Cc4cc(F)cc(F)c4)NC(=O)Cn4nc(C(F)F)c5c4C(F)(F)[C@@H]4C[C@H]54)nc4cc(OCCOC(F)F)ccc4c3=O)c21 (atropisomer, axis not shown; (P)) [Example 15, N—((S)-1-((3P)-3-(4-chloro-1-methyl-3-(methylsulfonamido)-1H-indazol-7-yl)-7-(2-(difluoromethoxy)ethoxy)-4-oxo-3,4-dihydroquinazolin-2-yl)-2-(3,5-difluorophenyl)ethyl)-2-((3bS,4aR)-3-(difluoromethyl)-5,5-difluoro-3b,4,4a,5-tetrahydro-1H-cyclopropa[3,4]cyclopenta[1,2-c]pyrazol-1-yl)acetamide] | > 500 | 0.051 |
| Cn1nc(NS(C)(=O)=O)c2c(Cl)ccc(-n3c([C@H](Cc4cc(F)cc(F)c4)NC(=O)Cn4nc(C(F)F)c5c4C(F)(F)[C@@H]4C[C@H]54)nc4cc(OCCN5CCS(=O)(=O)CC5)ccc4c3=O)c21 (atropisomer, axis not shown; (P)) [Example 4, N—((S)-1-((3P)-3-(4-chloro-1-methyl-3-(methylsulfonamido)-1H-indazol-7-yl)-7-(2-(1,1-dioxidothiomorpholino)ethoxy)-4-oxo-3,4-dihydroquinazolin-2-yl)-2-(3,5-difluorophenyl)ethyl)-2-((3bS,4aR)-3-(difluoromethyl)-5,5-difluoro-3b,4,4a,5-tetrahydro-1H-cyclopropa[3,4]cyclopenta[1,2-c]pyrazol-1-yl)acetamide] | > 1000 | 0.08 |
| Cn1nc(NS(C)(=O)=O)c2c(Cl)ccc(-n3c([C@H](Cc4cc(F)cc(F)c4)NC(=O)Cn4nc(C(F)F)c5c4C(F)(F)[C@@H]4C[C@H]54)nc4cc(OCC5CCCCC5)ccc4c3=O)c21 (atropisomer, axis not shown; (P)) [Example 3, N—((S)-1-((3P)-3-(4-chloro-1-methyl-3-(methylsulfonamido)-1H-indazol-7-yl)-7-(cyclohexylmethoxy)-4-oxo-3,4-dihydroquinazolin-2-yl)-2-(3,5-difluorophenyl)ethyl)-2-((3bS,4aR)-3-(difluoromethyl)-5,5-difluoro-3b,4,4a,5-tetrahydro-1H-cyclopropa[3,4]cyclopenta[1,2-c]pyrazol-1-yl)acetamide] | > 1000 | 0.47 |
